Measured values from US4943570A, “Benzimidazolesulfonamides and imidazopyridinesulfonamides, and their application as drugs” (Laboratorios Del Dr. Esteve, S.A., priority 1986, dated 1990).

Tested on: gastric acid secretion
Assay: Inhibition of gastric acid secretion in Shay rats (Shay's method, pylorus ligation)
Assay type: in vivo, Male Wistar rats
Conditions: Rattus norvegicus, administered intraduodenally; for ED50: 2 h; for inhibition in vivo at 40 mg/kg: intraduodenal, 2 h after pylorus ligation, read-out: Percentage inhibition of gastric acid secretion
Description: Shay's method [H. Shay; S. A. Komarov; S. S. Fels; D. Merange: M. Grvenstein; H. Siplet: Gastroenterology, 5, 43 (1945)--F. E. Visscber; P. H. Seay: A. P. Taxelaar; W. Veldkamp; M. J. Vander Brook: J. Pharmac. Exp. Ther., 110, 188 (1954)--"Animal Experiments in Pharmacological Analysis", F. R. Domer: C. C. Thomas, published by Springfield, Ill., U.S.A., 1970, p. 140].
Male Wistar rats weighing 200 to 250 grams are used in this test; they are fasted from the day preceding the day of the test, with free access to water. Groups containing a minimum of 4 animals each are used.
The rats are anesthetized with ethyl ether, a laparotomy is performed on them and their pylorus is ligated; the abdominal incision is then sewn up. The administration of the products, with the vehicle for the control group, is effected intraduodenally (i.d.) before the abdominal incision is sewn up. The dose administered in the first test is 40 mg/kg and the 50% effective dose (ED50), administered intraduodenally, is also determined in a second test. The vehicle used is gum arabic at a concentration of 5% w/v in double-distilled water.
Two hours after ligation of the pylorus, the rats are sacrificed by prolonged anesthesia with ethyl ether and the volume of gastric juice is measured; the total acidity is determined by means of a pH meter equipped with an automatic burette. For each product and each dose tested, the percentage inhibition of gastric acid secretion is determined relative to the control group.

Row | SMILES | ED50 | inhibition in vivo at 40 mg/kg
1 | CCNS(=O)(=O)c1nc2cc(C(=O)c3ccccc3)ccc2[nH]1 [Example 1, 5-benzoyl-N-ethyl-1H-benzimidazole-2-sulfonamide] | 22.4 mg/kg | 78.7%
2 | O=S(=O)(Nc1ccccn1)c1nc2ccccc2[nH]1 [Example 5, N-(2-Pyridyl)-1H-benzimidazole-2-sulfonamide] | 10.8 mg/kg | 96.4%
3 | COc1ccc(CCNS(=O)(=O)c2nc3ccccc3[nH]2)cc1OC [Example 11, N-[2-(3,4-Dimethoxyphenylethyl)]-1H-benzimidazole-2-sulfonamide] | 42 mg/kg | 48.8%
4 | CCCCNS(=O)(=O)c1nc2ccccc2[nH]1 [Example 14, N-Butyl-1H-benzimidazole-2-sulfonamide] | 30.6 mg/kg | 61.4%
5 | CCNS(=O)(=O)c1nc2cc(C(F)(F)F)ccc2[nH]1 [Example 26, N-Ethyl-5-trifluoromethyl-1H-benzimidazole-2-sulfonamide] | 38.5 mg/kg | 53%
6 | O=S(=O)(c1nc2ccccc2[nH]1)N1CCCCC1CO (centres unmarked) [Example 28, 2-(Sulfonyl-2-hydroxymethyl-1-piperidinyl)-1H-benzimidazole] | 38.5 mg/kg | 51.4%
7 | COc1ccc(CNS(=O)(=O)c2nc3ccccc3[nH]2)cc1 [Example 29, N-(4-Methoxybenzyl)-1H-benzimidazole-2-sulfonamide] | 37.9 mg/kg | 54.2%
8 | O=[N+]([O-])c1ccc2[nH]c(S(=O)(=O)NCCN3CCOCC3)nc2c1 [Example 36, N-[2-(4-Morpholinoethyl)]-5-nitro-1H-benzimidazole-2-sulfonamide] | 65.6 mg/kg | 40%
9 | CCNS(=O)(=O)c1nc2ccccc2n1CC [Example 62, 1,N-diethyl-1H-benzimidazole-2-sulfonamide] | 31 mg/kg | 52.4%
10 | CCN(CC)S(=O)(=O)c1nc2ccccc2n1CC [Example 63, 1,N,N-Triethyl-1H-benzimidazole-2-sulfonamide] | 49.2 mg/kg | 52%
11 | CCN(CC)CCCC(C)NS(=O)(=O)c1nc2cc(Cl)ccc2n1CC (centres unmarked) [Example 68, 5-Chloro-N-(4-diethylamino-1-methylbutyl)-1-ethyl-1H-benzimidazole-2-sulfonamide] | 39.7 mg/kg | 53.8%
12 | CCN(CC)CCCC(C)NS(=O)(=O)c1nc2ccc(Cl)cc2n1CC (centres unmarked) [Example 69, 6-Chloro-N-(4-diethylamino-1-methylbutyl)-1-ethyl-1H-benzimidazole-2-sulfonamide] | 39.2 mg/kg | 54.3%
13 | CCN(CC)CCCC(C)N(CC)S(=O)(=O)c1nc2cc(Cl)ccc2n1CC (centres unmarked) [Example 73, 5-Chloro-1,N-diethyl-N-(4-diethylamino-1-methylbutyl)-1H-benzimidazole-2-sulfonamide] | 18.5 mg/kg | 77.5%
14 | CCN(CC)CCCC(C)N(CC)S(=O)(=O)c1nc2ccc(Cl)cc2n1CC (centres unmarked) [Example 74, 6-Chloro-1,N-diethyl-N-(4-diethylamino-1-methylbutyl)-1H-benzimidazole-2-sulfonamide] | 17.9 mg/kg | 76.4%
15 | CCN1CCCn2c(nc3ccccc32)S1(=O)=O [Example 90, 3,4,5-Trihydro-2H-2-ethyl-[1,2,6]-thiadiazepino[6,7-a]-benzimidazole 1,1-dioxide] | 64 mg/kg | 51.4%
16 | CCCCN1CCn2c(nc3ccccc32)S1(=O)=O [Example 100, 2H-2-Butyl-3,4-Dihydro-[1,2,5]-thiadiazino[5,6-a]-benzimidazole 1,1-dioxide] | 37.6 mg/kg | 51.8%
17 | CCN(CC)CCCC(C)N1CCn2c(nc3cc(Cl)ccc32)S1(=O)=O (centres unmarked) [Example 102, 8-Chloro-3,4-dihydro-2H-2-(4-diethylamino-1-methylbutyl)-[1,2,5]-thiadiazino[5,6-a]benzimidazole 1,1-dioxide] | 14.1 mg/kg | 71.4%

Row | SMILES | ED50 | inhibition in vivo at 40 mg/kg
18 | CCN(CC)CCCC(C)N1CCn2c(nc3ccc(Cl)cc32)S1(=O)=O (centres unmarked) [Example 103, 7-chloro-3,4-dihydro-2H-2-(4-diethylamino-1-methylbutyl)-[1,2,5]-thiadiazino[5,6-a]benzimidazole 1,1-dioxide] | 15 mg/kg | 72.3%
19 | CCN1CCn2c(nc3cc(C(=O)c4ccccc4)ccc32)S1(=O)=O [Example 115, 8-Benzoyl-3,4-dihydro-2H-2-ethyl-[1,2,5]-thiadiazino-[5,6-a]benzimidazole 1,1-dioxide] | 38.9 mg/kg | 51.1%
20 | CCN1CCn2c(nc3ccc(C(=O)c4ccccc4)cc32)S1(=O)=O [Example 116, 7-Benzoyl-3,4-dihydro-2H-2-ethyl-[1,2,5]-thiadiazino-[5,6-a]benzimidazole 1,1-dioxide] | 39.4 mg/kg | 50.3%
21 | O=[N+]([O-])c1ccc2c(c1)nc1n2CCN(CCCN2CCOCC2)S1(=O)=O [Example 141, 3,4-Dihydro-2H-2-[3-(4-morpholinopropyl)]-8-nitro-[1,2,5]-thiadiazino[5,6-a]benzimidazole 1,1-dioxide] | 16.3 mg/kg | 80.9%
22 | CCN(CC)CCCC(C)N1CCn2c(nc3cc([N+](=O)[O-])ccc32)S1(=O)=O (centres unmarked) [Example 143, 2H-2-(4-Diethylamino-1-methylbutyl)-3,4-dihydro-8-nitro-[1,2,5]-thiadiazino[5,6-a]benzimidazole 1,1-dioxide] | 20.5 mg/kg | 99.3%
23 | O=[N+]([O-])c1ccc2c(c1)nc1n2CCNS1(=O)=O [Example 145, 3,4-Dihydro-2H-8-nitro-[1,2,5]-thiadiazino[5,6-a]-benzimidazole 1,1-dioxide] | 19.8 mg/kg | 68.7%
24 | O=[N+]([O-])c1ccc2nc3n(c2c1)CCNS3(=O)=O [Example 146, 3,4-Dihydro-2H-7-nitro-[1,2,5]-thiadiazino[5,6-a]-benzimidazole 1,1-dioxide] | 20.3 mg/kg | 67.5%
25 | O=[N+]([O-])c1ccc2c(c1)nc1n2CCN(C23CC4CC(CC(C4)C2)C3)S1(=O)=O [Example 147, 2H-2-(1-Adamantyl)-3,4-dihydro-8-nitro-[1,2,5]-thiadiazino[5,6-a]benzimidazole 1,1-dioxide] | 44 mg/kg | 46.5%
26 | O=[N+]([O-])c1ccc2nc3n(c2c1)CCN(C12CC4CC(CC(C4)C1)C2)S3(=O)=O [Example 148, 2H-2-(1-Adamantyl)-3,4-dihydro-7-nitro-[1,2,5]-thiadiazino[5,6-a]benzimidazole 1,1-dioxide] | 46 mg/kg | 45.3%
27 | CCN1CCn2c(nc3ccc(N)cc32)S1(=O)=O [Example 149, 7-amino-3,4-dihydro-2H-2-ethyl-[1,2,5]-thiadiazino[5,6-a]benzimidazole 1,1 dioxide] | 32.6 mg/kg | 64%
28 | CCN1CCn2c(nc3ccc(NC(C)=O)cc32)S1(=O)=O [Example 150, 7-acetylamino-3,4-dihydro-2H-2-ethyl-[1,2,5]-thiadiazino[5,6-a]benzimidazole 1,1-dioxide] | 41.6 mg/kg | 53.4%
29 | CCN1C(C)Cn2c(nc3ccccc32)S1(=O)=O (centres unmarked) [Example 170, 3,4-Dihydro-2H-2-ethyl-3-methyl-[1,2,5]-thiadiazino[5,6-a]benzimidazole 1,1-dioxide] | 21.8 mg/kg | 73.2%
30 | CCCCN1CCn2c(nc3cccnc32)S1(=O)=O [Example 173, 2H-2-Butyl-3,4-Dihydropyrido[3', 2':4,5]imidazo[1,2-e]-[1,2,5]-thiadiazine 1,1-dioxide] | 39.2 mg/kg | 57.1%
31 | CCN1C(c2ccccc2)=Cn2c(nc3ccccc32)S1(=O)=O [Example 177, 2H-2-ethyl-3-phenyl-[1,2,5]-thiadiazino[5,6-a]benzimidazole 1,1-dioxide] | 38.1 mg/kg | 53.7%
32 | O=S1(=O)c2nc3ccccc3n2CC2CCCCN21 (centres unmarked) [Example 180, 1,2,3,4,13,14-hexahydropyrido-[1',2':2,3]-[1,2,5]-thiadiazino[5,6-a]-benzimidazole 6,6-dioxide] | 43.7 mg/kg | 43.8%
33 | O=[N+]([O-])c1ccc2c(c1)nc1n2CC2CCCCN2S1(=O)=O (centres unmarked) [Example 181, 1,2,3,4,13,14-Hexahydro-9-nitropyrido[1',2':2,3]-[1,2,5-thiadiazino5,6-a]benzimidazole 6,6-dioxide] | 62 mg/kg | 43.4%
34 | O=[N+]([O-])c1ccc2nc3n(c2c1)CC1CCCCN1S3(=O)=O (centres unmarked) [Example 182, 1,2,3,4,13,14-Hexahydro-10-nitropyrido[1',2':2,3]-[1,2,5]-thiadiazino[5,6-a]benzimidazole 6,6-dioxide] | 61.2 mg/kg | 42.1%
